Experiments:
[1] = test system: A549 human lung cancer cell line harboring constitutively active Ras mutant; assay: MTT growth inhibition assay, A549; format: cell-based; details: A549, MTT
Protocol: MCF-7 (breast cancer), T47D (breast cancer), Colo 205 (colon cancer), JM-1 (rat hepatoma), Sk Mel-2 (melanoma), PLC (human hepatoma), and HepG2 (human hepatoma) were obtained from American Type Cell Culture Collection. MCF-7 cells were grown in RPMI medium supplemented with 10% Fetal Bovine Serum. The remaining cell lines were grown in DMEM medium supplemented with 10% Fetal Bovine Serum. For the assay, cells were seeded into 96 well plates in medium containing 1% Fetal Bovine Serum and 100 μL of a cell suspension containing 5000 cells per well were used for each well. Cell growth was evaluated utilizing MTT ((3-(4,5-Dimethylthiazol-2-yl)-2,5-diphenyltetrazolium). The absorbance of the wells at 544 nm was determined by a FLUOstar/POLARstar Galaxy (BMG Lab Technologies GmbH) microplate reader.
The growth inhibitory activity of compounds was compared using the A549 human lung cancer cell line harboring constitutively active G12D Ras mutant with the help of an MTT assay. […] Stepwise extensions and truncations confirmed that the peptide had the optimal length (see Table 1).
The growth inhibitory activity of compounds was compared using the A549 human lung cancer cell line harboring constitutively active G12D Ras mutant with the help of an MTT assay.

[2] = test system: DPPC bilayers containing 5% DPPE stabilized by MSP1 scaffold protein (nanodiscs); assay: SPR membrane binding to phospholipid bilayer nanodiscs; details: Hill equation
Protocol: Dipalmitoylphosphatidylcholine (DPPC) bilayers containing 5% dipalmitoyldiphosphatidylethanolamine (DPPE) stabilized by MSP1 scaffold protein were prepared. […] The preparation procedure involved mixing DPPC lipids with MSP1 at a 90:1 molar ratio in the presence of 100 mM cholate. Cholate was removed by slow dialysis. The assembled nanodiscs were purified by size-exclusion chromatography on a calibrated Superdex 200 column and immobilized on a surface plasmon resonance (SPR) sensor chip.
The presence of a primary amine group in DPPE provided a convenient site for cross-linking of nanodiscs to an SPR sensor chip. The noncross-linked dextran in the sample and reference cells was blocked by the coupling reagent. Four different peptides were used to study membrane binding by SPR. […] The HVR peptide lacks post-translational modifications present in K-Ras4B. The second peptide is the HVR peptide conjugated to S-farnesyl L-cysteine methyl ester via a bifunctional cross-linker Sulfosuccinimidyl-4-(N-maleimidomethyl)cyclohexane-1-carboxylate (Sulfo-SMCC) (Pierce). The other two peptides were kR-4A-C1 and kR-4B-C1.
In this situation determination of true dissociation constants was not feasible. Instead, the data were analyzed using the Hill equation. The Hill coefficient describes the degree of binding cooperativity.

[3] = test system: Ras protein in H2009 and H2592 cells; assay: Western blot of Ras protein amount in cancer cells; format: cell-based; details: 0-3.0 μM, 18 hours
Protocol: A further experiment was undertaken to determine the effect of analogs of helix 6 and HVR on the amount of K-Ras protein in cancer cells. H2009 (lung adenocarcinoma cells) and H2592 (plural mesothelioma cells) were exposed to varying concentrations (0-3.0 μM) of kR-4A-3, kR-4B-3, or kR-H6-3 for 18 hours. The cells then were lysed and the lysate was analyzed by Western blot using anti-Ras mAb (Cell Biolabs, Inc.).

[4] = target: K-Ras in H2592 cells (Homo sapiens, UniProt P01116); details: GI50 concentrations, 18 hours
Description: Goat anti-mouse antibodies with Alexa Fluor TM 594 (red) were used to visualize the anti-Ras mouse mAb.

| Substance | GI50 ([1]; Table 1 helix 6 derivatives) | also measured |
| --- | --- | --- |
| Cap-YQRVQRVLTYW (all D) [kR-H6-41] | 180 ± 40 nM | – |
| HVR peptide: represents the hypervariable region of K-Ras-4B, residues 165 through 183; lacks post-translational modifications (QYRLKKISKEEKTPGCVKI; K-Ras4B; UniProt P01116 165-183, looked up, fragment) [reference compound] | – | Hill coefficient (membrane binding cooperativity) [2]: 1.106±0.001 |
| Lau-HQRVQRVLTYF (all D) [kR-H6-43] | 300 ± 50 nM | – |
| Lau-WQRVQRVLTYF (all D) [kR-H6-44] | 1 ± 1 nM | – |
| Lau-YKRVQRVLTYF (all D) [kR-H6-42] | 300 ± 50 nM | – |
| Lau-YQRVQRVLTYF (all D) [kR-H6-38] | 15 nM | – |
| Lau-YQRVQRVLTYFA (all D) [kR-H6-47] | 1 ± 1 nM | – |
| Lau-YQRVQRVLTYW (all D) [kR-H6-39] | 90 ± 15 nM | – |
| Myr-YQRVQRVLTYW (all D) [kR-H6-40] | 20 ± 10 nM | – |
| Oct-YQRVQRVLTYF (all D) [kR-H6-50] | 4 ± 1 nM | – |
| Pal-Aib-YQRIQRVLTYF (all D) [kR-H6-35] | 450 ± 50 nM | – |
| Pal-KTKSKKKKK-NH2 All-D [kR-4B-6] | – | GI50 ([1]; Table 2 HVR derivatives): 1700 nM |
| Pal-KVEDAFYTLVREIRQYR [kR-H6-4] | > 5000 nM | – |
| Pal-LRYQRIERVLTYFADEV (all D) [kR-H6-2] | 300 nM | – |
| Pal-RYQRIERVLTYFADEV (all D) [kR-H6-1] | 1350 nM | – |
| Pal-RYQRIQRVLTYF (all D) [kR-H6-20] | 250 nM | – |
| Pal-RYQRIQRVLTYFA (all D) [kR-H6-19] | > 1000 nM | – |
| Pal-YQRIQRVLTYF (all D) [kR-H6-34] | 18 ± 5 nM | – |
| Pal-YQRIQRVLTYFA (all D) [kR-H6-21] | 30 nM | – |
| Pal-YQRKQRVLTYF (all D) [kR-H6-14] | 40 nM | – |
| Pal-YQRVQRVLTYF (all D) [kR-H6-36] | 10 ± 5 nM | – |
| Pal-e-KAFYTLVREIRKHK [kR-H6-18] | > 1000 nM | – |
| Pal-e-KAFYTLVREIRQY [kR-H6-10] | 300 nM | – |
| Pal-e-KAFYTLVREIRQYRL [kR-H6-27] | 280 ± 30 nM | – |
| Pal-e-KAFYTLVRQIRQYRL [kR-H6-28] | 250 ± 50 nM | – |
| Pal-e-KFYTLVREIRQYR [kR-H6-12] | 180 nM | – |
| e-Pal-KRYQRIERVLTYFADEV (all D) [kR-H6-3] | > 5000 nM | amount of Ras protein [3]: reduced the amount of Ras protein in lung cancer cells in a concentration-dependent manner; Ras protein levels by immunostaining [4]: reduction in protein levels; pattern of K-Ras distribution [4]: lack of characteristic punctuate pattern of K-Ras distribution |
